Laboratory results published in US7851475B2, “Substituted pyrrole-2, 5-diones as protein kinase C inhibitors” (Novartis AG, priority 2004, dated 2010).

Tests used:
[1] = system: spleen cells from CBA and BALB/c mice; test: Allogeneic Mixed Lymphocyte Reaction (MLR); format: cell-based; details: two-way MLR, CBA and BALB/c mouse spleen cells, four days incubation, read-out: IC50 MLR (3H-thymidine incorporation, proliferation)
Description: The two-way MLR is performed according to standard procedures (J. Immunol. Methods, 1973, 2, 279 and Meo T. et al., Immunological Methods, New York, Academic Press, 1979, 227-39). Briefly, spleen cells from CBA and BALB/c mice (1.6×10^5 cells from each strain per well in flat bottom tissue culture microtiter plates, 3.2×10^5 in total) are incubated in RPMI medium containing 10% FCS, 100 U/ml penicillin, 100 μg/ml streptomycin (Gibco BRL, Basel, Switzerland), 50 μM 2-mercaptoethanol (Fluka, Buchs, Switzerland) and serially diluted compounds. Seven three-fold dilution steps in duplicates per test compound are performed. After four days of incubation 1 μCi ^3H-thymidine is added. Cells are harvested after an additional five-hour incubation period, and incorporated ^3H-thymidine is determined according to standard procedures. Background values (low control) of the MLR are […].
[…] proliferation of BALB/c cells alone. Low controls are subtracted from all values. High controls without any sample are taken as 100% proliferation. […]

[2] = molecular target: T1, Human recombinant PKCα (Homo sapiens, UniProt P17252); test: Protein Kinase Cα Assay; format: biochemical; details: 10 μM 33P-ATP, 60 min room temperature
T1 construct: purchased Oxford Biomedical Research

[3] = molecular target: Human recombinant PKCθ (Homo sapiens, UniProt Q04759); test: Protein Kinase C θ Assay
Description: The compounds of the invention are tested for their activity on different PKC isoforms according to the following method. Assay is performed in a white with clear bottom 384-well microtiterplate with non-binding surface. The reaction mixture (25 μl) contains 1.5 μM of a tridecapeptide acceptor substrate that mimics the pseudo substrate sequence of PKC α with the Ala→Ser replacement, 10 μM ^33P-ATP, 10 mM Mg(NO3)2, 0.2 mM CaCl2, PKC at a protein concentration varying from 25 to 400 ng/ml (depending on the isotype used), lipid vesicles (containing 30 mol % phosphatidylserine, 5 mol % DAG and 65 mol % phosphatidylcholine) at a final lipid concentration of 0.5 mM, in 20 mM Tris-HCl buffer pH 7.4+0.1% BSA. Incubation is performed for 60 min at room temperature. Reaction is stopped by adding 50 μl of stop mix (100 mM EDTA, 200 μM ATP, 0.1% Triton X-100, 0.375 mg/well streptavidin-coated SPA beads in phosphate buffered saline w/o Ca, Mg). After 10 min incubation at room temperature, the suspension is spun down for 10 min at 300 g. Incorporated radioactivity is measured in a Trilux counter for 1 min. IC50 measurement is performed on a routine basis by incubating a serial dilution of inhibitor at concentrations ranging between 1-1000 μM. IC50 values are calculated from the graph by curve fitting with XL fit® software.

[4] = system: Jurkat cells transfected with a human interleukin-2 promoter/reporter gene construct; test: CD28 Costimulation Assay; format: cell-based; details: stimulated transfected Jurkat cells, 5.5 hours, stimulus not specified for these values, read-out: IC50 CD28 costimulation assay (luciferase reporter)
Description: The assay is performed with Jurkat cells transfected with a human interleukin-2 promoter/reporter gene construct as described by Baumann G et al. in Transplant. Proc. 1992; 24:43-8, the β-galactosidase reporter gene being replaced by the luciferase gene (de Wet J., et al., Mol. Cell. Biol. 1987, 7(2), 725-737). Cells are stimulated by solid phase-coupled antibodies or phorbol myristate acetate (PMA) and the Ca^++ ionophore ionomycin as follows. For antibody-mediated stimulation Microlite TM1 microtiter plates (Dynatech) are coated with 3 μg/ml goat anti-mouse IgG Fc antibodies (Jackson) in 55 μl phosphate-buffered saline (PBS) per well for three hours at RT. Plates are blocked after removing the antibodies by incubation with 2% bovine serum albumin (BSA) in PBS (300 μl per well) for 2 hours at RT. […] After incubation for 5.5 hours at 37° C. in 5% CO2, the level of luciferase is determined by bioluminescence measurement. […] Luciferase activity is assessed with a bioluminescence reader (Labsystem, Helsinki, Finland) after automatic addition of 50 μl per well luciferase reaction buffer containing 20 mM Tricine, 1.07 mM (MgCO3)4Mg(OH)2×5H2O, 2.67 mM MgSO4, 0.1 mM EDTA, 33.3 mM DTT, 270 μM coenzyme A, 470 μM luciferin (Chemie Brunschwig AG), 530 μM ATP, pH 7.8. […] The inhibition obtained in the presence of a test compound is calculated as percent inhibition of the high control. […]

Sequence of Human recombinant PKCθ (Q04759 whole entry): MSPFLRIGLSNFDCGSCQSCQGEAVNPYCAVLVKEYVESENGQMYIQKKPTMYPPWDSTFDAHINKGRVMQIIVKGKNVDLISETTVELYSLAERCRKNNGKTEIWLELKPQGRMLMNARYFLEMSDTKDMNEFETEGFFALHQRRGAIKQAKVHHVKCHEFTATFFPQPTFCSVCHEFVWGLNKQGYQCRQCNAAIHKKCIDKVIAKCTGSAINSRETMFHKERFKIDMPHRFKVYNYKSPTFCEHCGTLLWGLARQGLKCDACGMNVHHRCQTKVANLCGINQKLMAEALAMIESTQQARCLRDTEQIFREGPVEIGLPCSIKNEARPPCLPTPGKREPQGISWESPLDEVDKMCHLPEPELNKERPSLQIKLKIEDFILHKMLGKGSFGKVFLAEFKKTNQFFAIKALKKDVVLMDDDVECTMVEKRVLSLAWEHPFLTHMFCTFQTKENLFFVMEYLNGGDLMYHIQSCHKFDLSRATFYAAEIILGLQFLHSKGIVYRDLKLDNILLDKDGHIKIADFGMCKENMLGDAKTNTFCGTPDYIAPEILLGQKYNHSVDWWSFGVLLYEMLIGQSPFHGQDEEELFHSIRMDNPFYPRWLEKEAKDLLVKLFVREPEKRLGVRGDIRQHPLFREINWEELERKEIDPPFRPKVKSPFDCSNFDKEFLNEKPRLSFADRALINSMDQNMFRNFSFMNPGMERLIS

SMILES | IC50 [1] [nM] | IC50 [2] [nM] | IC50 [3] [nM] | IC50 [4] [nM]
CN1CCN(c2ccc([N+](=O)[O-])c(C3=C(c4c[nH]c5ccccc45)C(=O)NC3=O)c2)CC1 [Example 1, 3-(1H-indol-3-yl)-4-[5-(4-methyl-piperazin-1-yl)-2-nitro-phenyl]-pyrrole-2,5-dione] | 17.5 | 2.6 | 8.9 | 25.5
Cc1cccc2c(C3=C(c4cc(N5CCN(C)CC5)ccc4[N+](=O)[O-])C(=O)NC3=O)c[nH]c12 [Example 4] | 24 | 2.9 | 10.2 | 17
